Laboratory results taken from PubChem BioAssay (NCI).
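How tested: cells in 96-well plates exposed to compound for 48 hours at five concentrations. TGI: concentration producing complete growth inhibition.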

Tests used:
Experiment in all cases: NCI-60 cell line screen, 48 h
KM12 colon = system: KM12 colon
NCI-H226 lung = system: NCI-H226 lung
CAKI-1 renal = system: CAKI-1 renal
IGROV1 ovarian = system: IGROV1 ovarian
HOP-92 NSCLC = system: HOP-92 NSCLC
HOP-62 NSCLC = system: HOP-62 NSCLC
SK-MEL-28 melanoma = system: SK-MEL-28 melanoma
RXF 393 renal = system: RXF 393 renal
SK-OV-3 ovarian = system: SK-OV-3 ovarian
SF-268 CNS = system: SF-268 CNS
HL-60(TB) leukemia = system: HL-60(TB) leukemia
MDA-MB-231 breast = system: MDA-MB-231 breast
BT-549 breast = system: BT-549 breast
ACHN renal = system: ACHN renal
UACC-257 melanoma = system: UACC-257 melanoma
786-0 renal = system: 786-0 renal
UO-31 renal = system: UO-31 renal
A498 renal = system: A498 renal
OVCAR-4 ovarian = system: OVCAR-4 ovarian
MCF7 breast = system: MCF7 breast
MALME-3M melanoma = system: MALME-3M melanoma
NCI/ADR-RES ovarian = system: NCI/ADR-RES ovarian
SK-MEL-2 melanoma = system: SK-MEL-2 melanoma
DU-145 prostate = system: DU-145 prostate
LOX IMVI melanoma = system: LOX IMVI melanoma
SF-295 CNS = system: SF-295 CNS
SF-539 CNS = system: SF-539 CNS
SNB-75 CNS = system: SNB-75 CNS
NCI-H522 lung = system: NCI-H522 lung
SN12C renal = system: SN12C renal
SK-MEL-5 melanoma = system: SK-MEL-5 melanoma
NCI-H460 lung = system: NCI-H460 lung
MOLT-4 leukemia = system: MOLT-4 leukemia
COLO 205 colon = system: COLO 205 colon
PC-3 prostate = system: PC-3 prostate
MDA-N = system: MDA-N
A549 NSCLC = system: A549 NSCLC
OVCAR-5 ovarian = system: OVCAR-5 ovarian
T-47D breast = system: T-47D breast
MDA-MB-435 = system: MDA-MB-435
HCC-2998 colon = system: HCC-2998 colon
U251 CNS = system: U251 CNS
HS 578T breast = system: HS 578T breast
OVCAR-3 ovarian = system: OVCAR-3 ovarian
HCT-15 colon = system: HCT-15 colon
EKVX NSCLC = system: EKVX NSCLC
SW-620 colon = system: SW-620 colon
CCRF-CEM leukemia = system: CCRF-CEM leukemia
SNB-19 CNS = system: SNB-19 CNS
K-562 leukemia = system: K-562 leukemia
OVCAR-8 ovarian = system: OVCAR-8 ovarian
UACC-62 melanoma = system: UACC-62 melanoma
NCI-H23 lung = system: NCI-H23 lung
HT29 colon = system: HT29 colon
HCT-116 colon = system: HCT-116 colon
TK-10 renal = system: TK-10 renal
M14 melanoma = system: M14 melanoma
SR leukemia = system: SR leukemia
RPMI-8226 leukemia = system: RPMI-8226 leukemia

`Cc1cc(C)c2c(=O)n(CN3CCN(c4ccccc4)CC3)sc2n1` gave a TGI (KM12 colon) greater than 100 µM, a TGI (NCI-H226 lung) greater than 100 µM and a TGI (CAKI-1 renal) of 39.4 µM. For the same compound, the TGI (IGROV1 ovarian) was greater than 100 µM, the TGI (HOP-92 NSCLC) was greater than 100 µM and the TGI (HOP-62 NSCLC) was greater than 100 µM. For the same compound, the TGI (SK-MEL-28 melanoma) was greater than 100 µM, the TGI (RXF 393 renal) was 25.7 µM and the TGI (SK-OV-3 ovarian) was greater than 100 µM. The TGI (SF-268 CNS) was greater than 100 µM, the TGI (HL-60(TB) leukemia) was 41.5 µM and the TGI (MDA-MB-231 breast) was 39.5 µM. For the same compound, the TGI (BT-549 breast) was greater than 100 µM, the TGI (ACHN renal) was 35.2 µM and the TGI (UACC-257 melanoma) was greater than 100 µM. It also gave a TGI (786-0 renal) of 31.4 µM, a TGI (UO-31 renal) of 40.7 µM and a TGI (A498 renal) greater than 100 µM. The TGI (OVCAR-4 ovarian) was greater than 100 µM, the TGI (MCF7 breast) was greater than 100 µM and the TGI (MALME-3M melanoma) was greater than 100 µM. For the same compound, the TGI (NCI/ADR-RES ovarian) was 52.7 µM, the TGI (SK-MEL-2 melanoma) was 33.9 µM and the TGI (DU-145 prostate) was 63.3 µM. The TGI (LOX IMVI melanoma) was 44.1 µM, the TGI (SF-295 CNS) was greater than 100 µM and the TGI (SF-539 CNS) was 37.5 µM. The TGI (SNB-75 CNS) was 42.7 µM, the TGI (NCI-H522 lung) was 32.5 µM and the TGI (SN12C renal) was 87 µM. The TGI (SK-MEL-5 melanoma) was greater than 100 µM, the TGI (NCI-H460 lung) was greater than 100 µM and the TGI (MOLT-4 leukemia) was 58.7 µM. It also gave a TGI (COLO 205 colon) of 41.3 µM, a TGI (PC-3 prostate) of 40.5 µM and a TGI (MDA-N) of 60.4 µM. The TGI (A549 NSCLC) was greater than 100 µM, the TGI (OVCAR-5 ovarian) was 49.2 µM and the TGI (T-47D breast) was 33.8 µM. For the same compound, the TGI (MDA-MB-435) was greater than 100 µM, the TGI (HCC-2998 colon) was greater than 100 µM and the TGI (U251 CNS) was 56.2 µM. It also gave a TGI (HS 578T breast) greater than 100 µM, a TGI (OVCAR-3 ovarian) of 99.6 µM and a TGI (HCT-15 colon) of 50.7 µM. It also gave a TGI (EKVX NSCLC) of 70.1 µM, a TGI (SW-620 colon) greater than 100 µM and a TGI (CCRF-CEM leukemia) greater than 100 µM. For the same compound, the TGI (SNB-19 CNS) was greater than 100 µM, the TGI (K-562 leukemia) was greater than 100 µM and the TGI (OVCAR-8 ovarian) was greater than 100 µM. It also gave a TGI (UACC-62 melanoma) greater than 100 µM, a TGI (NCI-H23 lung) of 85.2 µM and a TGI (HT29 colon) of 34.6 µM. The TGI (HCT-116 colon) was 35.1 µM, the TGI (TK-10 renal) was greater than 100 µM and the TGI (M14 melanoma) was 76.6 µM.
`O=C(N/N=C\c1ccc([N+](=O)[O-])cc1)Nc1ccccc1` gave a TGI (KM12 colon) greater than 100 µM, a TGI (NCI-H226 lung) greater than 100 µM and a TGI (CAKI-1 renal) greater than 100 µM. For the same compound, the TGI (IGROV1 ovarian) was greater than 100 µM, the TGI (HOP-92 NSCLC) was greater than 100 µM and the TGI (HOP-62 NSCLC) was greater than 100 µM. It also gave a TGI (SK-MEL-28 melanoma) greater than 100 µM, a TGI (RXF 393 renal) greater than 100 µM and a TGI (SK-OV-3 ovarian) greater than 100 µM. The TGI (HL-60(TB) leukemia) was greater than 100 µM, the TGI (BT-549 breast) was greater than 100 µM and the TGI (UACC-257 melanoma) was greater than 100 µM. The TGI (UO-31 renal) was greater than 100 µM, the TGI (SR leukemia) was greater than 100 µM and the TGI (A498 renal) was greater than 100 µM. The TGI (OVCAR-4 ovarian) was greater than 100 µM, the TGI (MCF7 breast) was greater than 100 µM and the TGI (MALME-3M melanoma) was greater than 100 µM. It also gave a TGI (NCI/ADR-RES ovarian) greater than 100 µM, a TGI (RPMI-8226 leukemia) greater than 100 µM and a TGI (SK-MEL-2 melanoma) greater than 100 µM. The TGI (DU-145 prostate) was greater than 100 µM, the TGI (SF-295 CNS) was greater than 100 µM and the TGI (SNB-75 CNS) was greater than 100 µM. The TGI (SN12C renal) was greater than 100 µM, the TGI (SK-MEL-5 melanoma) was greater than 100 µM and the TGI (NCI-H460 lung) was greater than 100 µM. It also gave a TGI (MOLT-4 leukemia) greater than 100 µM, a TGI (COLO 205 colon) greater than 100 µM and a TGI (PC-3 prostate) greater than 100 µM. For the same compound, the TGI (MDA-N) was greater than 100 µM, the TGI (OVCAR-5 ovarian) was greater than 100 µM and the TGI (T-47D breast) was greater than 100 µM. It also gave a TGI (MDA-MB-435) greater than 100 µM, a TGI (U251 CNS) greater than 100 µM and a TGI (HS 578T breast) greater than 100 µM. The TGI (OVCAR-3 ovarian) was greater than 100 µM, the TGI (HCT-15 colon) was greater than 100 µM and the TGI (SW-620 colon) was greater than 100 µM. It also gave a TGI (CCRF-CEM leukemia) greater than 100 µM, a TGI (SNB-19 CNS) greater than 100 µM and a TGI (K-562 leukemia) greater than 100 µM. For the same compound, the TGI (OVCAR-8 ovarian) was greater than 100 µM, the TGI (UACC-62 melanoma) was greater than 100 µM and the TGI (NCI-H23 lung) was greater than 100 µM. The TGI (HT29 colon) was greater than 100 µM, the TGI (HCT-116 colon) was greater than 100 µM and the TGI (TK-10 renal) was greater than 100 µM. For the same compound, the TGI (M14 melanoma) was greater than 100 µM.
